# pIC50: −log10 of the molar value. Entries after “also recorded” stand apart in the source; their conditions may differ. Ends that are not written are not given here.
# How the values were obtained:
# [1] = test system: formalin-induced pain; conditions: iv; cited from earlier work
# [2] = test system: human cell surface endopeptidases; experiment: metabolism of YQRFSR by human cell membranes containing NEP (RP-HPLC); assay type: in vitro ADME; conditions: 175 μM
# Description: FIG. 8 is a RP-HPLC chromatographic analysis of the YQRFSR peptide (SEQ ID NO: 4).
# The inventors used the tritiated 3H-YQRFSR peptide (SEQ ID NO: 4) to establish the pharmacokinetic and pharmacodynamic parameters, of this human functional peptidomimetic of rat sialorphin in vivo in adult male rat (biodistribution-bioavailability-clearance) as well as to define its metabolism mechanism and turnover in vivo and in vitro, (FIG. 8).
# [3] = target: T1, human NEP (human ecto-endopeptidase activity, LNCaP cell line) (Homo sapiens, UniProt P08473); experiment: breakdown of substrate (substance P, McaBK2) by LNCaP human cell membranes; assay type: biochemical; conditions: for effect on substance P hydrolysis by cell surface ectopeptidases: bestatin 25 μM, captopril 10 μM
# T1 construct: in the experimental model of static incubation of human LNCaP cell membranes; endogenous in cells; host or cells: LNCaP (human prostate adenocarcinoma) membrane preparation, NEP induced by DHT
# T1 sequence (P08473 whole entry): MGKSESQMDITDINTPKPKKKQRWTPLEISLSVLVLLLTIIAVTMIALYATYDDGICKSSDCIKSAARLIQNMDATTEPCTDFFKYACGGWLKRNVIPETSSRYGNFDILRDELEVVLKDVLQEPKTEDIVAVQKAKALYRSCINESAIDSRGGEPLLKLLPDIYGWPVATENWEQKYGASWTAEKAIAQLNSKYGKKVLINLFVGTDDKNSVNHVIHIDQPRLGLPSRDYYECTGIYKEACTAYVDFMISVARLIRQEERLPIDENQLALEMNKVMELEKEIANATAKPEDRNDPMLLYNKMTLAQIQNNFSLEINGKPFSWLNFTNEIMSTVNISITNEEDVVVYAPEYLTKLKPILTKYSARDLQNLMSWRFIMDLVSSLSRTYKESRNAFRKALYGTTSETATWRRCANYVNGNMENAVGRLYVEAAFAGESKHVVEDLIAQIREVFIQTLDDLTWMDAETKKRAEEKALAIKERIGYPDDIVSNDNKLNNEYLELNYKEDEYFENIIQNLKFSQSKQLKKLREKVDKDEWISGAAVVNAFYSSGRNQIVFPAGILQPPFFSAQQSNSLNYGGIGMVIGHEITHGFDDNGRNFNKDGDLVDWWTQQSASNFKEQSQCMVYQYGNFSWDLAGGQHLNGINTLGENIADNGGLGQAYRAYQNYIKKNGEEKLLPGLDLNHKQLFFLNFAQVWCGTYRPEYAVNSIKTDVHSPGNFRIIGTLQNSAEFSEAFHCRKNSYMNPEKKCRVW
# [4] = target: T2, rat NEP ecto-endopeptidase activity (renal tissue) (Rattus norvegicus, UniProt P07861); experiment: breakdown of substance P by rat renal NEP ecto-endopeptidase activity; assay type: biochemical
# T2 construct: rat NEP ecto-endopeptidase activity (renal tissue); from tissue; host or cells: rat kidney (renal tissue)
# T2 sequence (P07861 1-750): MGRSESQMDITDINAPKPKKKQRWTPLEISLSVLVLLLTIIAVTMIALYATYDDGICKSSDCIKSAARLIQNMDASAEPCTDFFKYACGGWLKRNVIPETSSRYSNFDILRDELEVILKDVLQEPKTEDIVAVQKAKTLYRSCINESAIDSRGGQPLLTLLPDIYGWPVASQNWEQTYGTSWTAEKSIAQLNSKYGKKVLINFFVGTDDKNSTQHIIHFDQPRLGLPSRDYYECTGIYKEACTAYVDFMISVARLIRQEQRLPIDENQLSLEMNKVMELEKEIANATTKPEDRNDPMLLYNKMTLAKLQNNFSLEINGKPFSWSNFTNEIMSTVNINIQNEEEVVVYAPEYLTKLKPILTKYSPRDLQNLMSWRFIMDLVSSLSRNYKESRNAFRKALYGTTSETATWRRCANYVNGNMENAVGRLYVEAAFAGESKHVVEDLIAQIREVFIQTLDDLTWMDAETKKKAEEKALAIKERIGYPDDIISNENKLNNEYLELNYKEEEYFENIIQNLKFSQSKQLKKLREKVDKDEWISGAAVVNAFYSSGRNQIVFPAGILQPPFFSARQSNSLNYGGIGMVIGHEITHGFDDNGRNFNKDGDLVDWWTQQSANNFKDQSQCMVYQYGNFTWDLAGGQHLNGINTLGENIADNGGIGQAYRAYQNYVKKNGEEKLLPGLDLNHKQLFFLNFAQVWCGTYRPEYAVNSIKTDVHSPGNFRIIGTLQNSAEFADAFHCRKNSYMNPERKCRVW
# Description: Briefly, for membrane preparations, the cells were homogenised at 4° C. in 10 volumes (vol./wt.) of 50 mM Tris/HCl buffered at pH 7.1. A first centrifugation at 1000×g and 5° C. for 5 min allows to remove the cellular debris and the nuclei in the pellet. A second centrifugation at 100 000×g and 5° C. for 30 min concentrates the membrane fraction in the pellet, which will be superficially washed three times in cold Tris/HCl buffer, resuspended in fresh buffer, aliquoted and stored at −80° C. while waiting to be used as enzyme source.
# Hydrolysis of substrates was measured by monitoring the metabolism rate in conditions of initial velocity measurement in the presence and absence of specific inhibitors. These were added to the preincubation medium. The standard reaction mixture consisted of cell membranes in a final volume of 200 μl Tris-HCl 50 mM pH 6.5-7.2. The substrate was added after preincubation for 10 min and the digestion carried out for 20 min at 25° C. in a constantly shaken water bath. The reaction was terminated by cooling to 4° C. and adding HCl (0.3N final concentration). The reaction tubes were then centrifuged (4700×g for 15 min at 4° C.) and the remaining intact substrate and its metabolites measured.
# The intact tritiated substrate was eluted with 75-100% methanol-0.1% TFA (4 ml). • RP-HPLC coupled to a spectrophotometer was used to analyse the hydrolysis of Met-enkephalin, (C-18 LUNA column, AIT). […] Their identities and relative quantities (peak height) were checked by monitoring the column outflow at 264 nm (L3000, Merck). • The disappearance of the initial Met-enkephalin substrate was also quantified by radioimmunoassay (RIA). […] The radioactivity of each fraction was determined by liquid scintillation spectrometry.
# [5] = test system: formalin-induced pain; experiment: formalin test, behavioral rat model of acute pain; assay type: in vivo; conditions: for time spent in paw licking, early phase: first 20 min after formalin, vehicle 144±17 s
# Description: […]. […] […].
# [6] = target: T3, soluble purified renal NEP (Oryctolagus cuniculus, UniProt P08049); conditions: DGNPA substrate, read-out: IC50 of inhibition of NEP activity; cited from earlier work
# T3 construct: host or cells: kidney (purified, soluble)
# T3 sequence (P08049 1-750): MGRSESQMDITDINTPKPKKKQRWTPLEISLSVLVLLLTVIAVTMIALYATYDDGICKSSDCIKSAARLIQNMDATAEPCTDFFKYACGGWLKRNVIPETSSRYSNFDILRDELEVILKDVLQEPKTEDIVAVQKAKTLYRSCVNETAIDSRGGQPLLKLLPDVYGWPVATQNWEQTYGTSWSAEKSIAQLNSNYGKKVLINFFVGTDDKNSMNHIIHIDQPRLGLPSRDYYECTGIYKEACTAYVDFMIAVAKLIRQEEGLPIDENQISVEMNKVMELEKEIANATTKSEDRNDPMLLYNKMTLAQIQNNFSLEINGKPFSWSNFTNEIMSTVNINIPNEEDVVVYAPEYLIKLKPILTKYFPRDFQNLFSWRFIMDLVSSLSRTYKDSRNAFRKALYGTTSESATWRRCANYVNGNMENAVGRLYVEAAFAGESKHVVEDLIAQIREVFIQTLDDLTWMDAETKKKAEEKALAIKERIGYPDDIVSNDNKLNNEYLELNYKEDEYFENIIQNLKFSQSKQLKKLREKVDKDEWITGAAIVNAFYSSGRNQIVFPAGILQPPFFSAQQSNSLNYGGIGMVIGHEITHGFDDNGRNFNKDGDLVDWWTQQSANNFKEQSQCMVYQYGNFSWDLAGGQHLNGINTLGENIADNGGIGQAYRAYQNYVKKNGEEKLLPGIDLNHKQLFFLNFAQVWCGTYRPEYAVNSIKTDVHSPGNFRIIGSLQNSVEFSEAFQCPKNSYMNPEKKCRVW
# [7] = target: T4, spinal and renal NEP (Rattus norvegicus, UniProt P07861); conditions: membrane-bound NEP; read-out: IC50 of inhibition of the breakdown of substance P; cited from earlier work
# T4 construct: host or cells: spinal cord and kidney tissue
# T4 sequence (P07861 1-750): T2 sequence (P07861 1-750)
# [8] = target: T5, soluble recombinant human DPP IV (Homo sapiens, UniProt P27487); experiment: endoproteolysis of substance P by soluble recombinant hDPPIV; assay type: biochemical; conditions: 25 or 50 μM peptide
# T5 construct: (without the N-terminal cytosol and transmembrane segment)
# T5 sequence (P27487 29-766 limits assumed): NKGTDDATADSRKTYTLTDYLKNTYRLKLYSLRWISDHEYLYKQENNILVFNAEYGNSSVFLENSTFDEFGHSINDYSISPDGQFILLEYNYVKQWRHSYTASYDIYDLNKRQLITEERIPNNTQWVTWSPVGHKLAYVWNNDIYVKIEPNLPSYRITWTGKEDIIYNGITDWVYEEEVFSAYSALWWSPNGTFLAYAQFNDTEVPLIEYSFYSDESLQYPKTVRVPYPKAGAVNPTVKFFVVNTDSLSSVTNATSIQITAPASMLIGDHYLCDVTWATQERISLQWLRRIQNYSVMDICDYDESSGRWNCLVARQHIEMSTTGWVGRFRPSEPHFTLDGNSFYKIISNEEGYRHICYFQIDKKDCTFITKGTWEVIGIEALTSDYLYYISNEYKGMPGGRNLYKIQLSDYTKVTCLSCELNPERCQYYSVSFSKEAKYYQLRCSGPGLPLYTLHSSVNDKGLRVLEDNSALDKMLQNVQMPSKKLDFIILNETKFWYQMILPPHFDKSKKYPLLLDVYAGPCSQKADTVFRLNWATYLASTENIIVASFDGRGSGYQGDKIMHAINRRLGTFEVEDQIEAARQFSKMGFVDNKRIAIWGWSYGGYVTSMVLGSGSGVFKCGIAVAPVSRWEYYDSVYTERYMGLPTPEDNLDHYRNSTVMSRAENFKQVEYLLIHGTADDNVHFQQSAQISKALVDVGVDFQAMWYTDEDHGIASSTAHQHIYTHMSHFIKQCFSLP
molecule,measurement,setting,value
CSCC[C@H](N)CSSCC(Cc1ccccc1)C(=O)N[C@@H](Cc1ccccc1)C(=O)OCc1ccccc1 (stereo partly shown) [RB101],effective doses in formalin-induced pain model,[1],2.5 to 5 mg/kg
N=C(N)NCCC[C@H](NC(=O)[C@H](CO)NC(=O)[C@H](Cc1ccccc1)NC(=O)[C@H](CCCNC(=N)N)NC(=O)[C@H](CCC(N)=O)NC(=O)[C@@H](N)Cc1ccc(O)cc1)C(=O)O [YQRFSR],metabolism by human cell membranes containing NEP,[2]; in vitro,not metabolized
same,recovered as intact peptide,"[2]; with human cell membranes containing NEP, 94% in absence of membranes",93%
same,inhibitory potency towards ectoendopeptidase from human cells,[3],5000 to 50000 nM
same,inhibition of substance P endoproteolysis by human cell membranes,[3]; peptide 175 μM,70%
same,pIC50,[4],4.42
same,inhibitory potency towards ectoendopeptidase from rat tissues,[4],5000 to 75000 nM
same,"time spent in paw licking, early phase",[5]; 0.5 mg/kg systemic,97 ± 14 s
same,"time spent in paw licking, early phase",[5]; 1 mg/kg systemic,84 ± 13 s
same,"time spent in paw licking, late phase","[5]; 1 mg/kg, 40 to 60 min after formalin, vehicle 63±13 s",9 ± 3 s
same,analgesia in the presence of an opioid receptor antagonist,[5]; with nalaxone,totally reversed
CC(C)C[C@H](NC(=O)[C@@H](O)[C@H](N)Cc1ccccc1)C(=O)O [bestatin],effect on substance P hydrolysis by cell surface ectopeptidases,[3],did not inhibit
C[C@H](CS)C(=O)N1CCC[C@H]1C(=O)O [captopril],effect on substance P hydrolysis by cell surface ectopeptidases,[3],did not inhibit
O=C(O)CNC(=O)C(CS)Cc1ccccc1 (stereo not shown) [thiorphan],inhibition at 0.5 µM,[3]; read-out: maximum inhibitory potency on LNCaP membrane activity,62%
QHNP (listed as Rattus rattus),inhibitory potency towards ectoendopeptidase from rat tissues,[4],≧50 μM
QHNPR,effective doses in formalin-induced pain model,[1],0.1 to 0.2 mg/kg
same,pIC50,[6],6.22
same,"inhibitory potency against membrane-anchored human NEP (LNCaP) relative to rodent NEP (rat, rabbit), fold lower",[3]; human LNCaP vs rodent NEP,about 10 fold
same,inhibitory potency towards ectoendopeptidase from human cells,[3],4000 to 40000 nM
same,pIC50,[7],6.00 to 6.40
same,inhibitory potency towards ectoendopeptidase from rat tissues,[4],400 to 4000 nM
QRFSR [QRFSR],effect on breakdown of SP by recombinant hDPPIV,[8],no effect; also recorded: not prevented
QRGPR (listed as Homo sapiens),effect on substance P endoproteolysis induced by LNCaP human cell membranes,[3]; 20-90 μM,no effect
same,inhibitory potency towards ectoendopeptidase from human cells,[3],≧90 μM
QRGPRGP (listed as Homo sapiens),inhibitory potency towards ectoendopeptidase from human cells,[3],≧90 μM
